Measurements from patent US12421227B2, “Ribociclib salts and solid state forms thereof” (ASSIA CHEMICAL INDUSTRIES LTD., priority 2017, dated 2025).

How the values were obtained:
[1] = cited from earlier work
[2] = exposure to 90% RH; cited from earlier work

hygroscopicity	Substance	sorption/desorption behavior, hydrate formation ([1]; 90% RH condition in each cycle)	moisture absorbed ([1]; at 90% RH in each cycle)	hygroscopic behavior ([1]; at high humidity conditions)	physical form on exposure to humidity [2]
–	Ribociclib succinate	formation of hydrate form is taking place	up to 2%	slight hygroscopic behavior	change in physical form
negligible hygroscopicity	Ribociclib succinate [Form B]	–	–	–	–
